From paper PMC3315319 (Nucleic Acids Research, 2011)

Target: T1, gp16 (eGFP-gp16) (Bacillus phage phi29, UniProt P11014)
T1 sequence (P11014 1-332): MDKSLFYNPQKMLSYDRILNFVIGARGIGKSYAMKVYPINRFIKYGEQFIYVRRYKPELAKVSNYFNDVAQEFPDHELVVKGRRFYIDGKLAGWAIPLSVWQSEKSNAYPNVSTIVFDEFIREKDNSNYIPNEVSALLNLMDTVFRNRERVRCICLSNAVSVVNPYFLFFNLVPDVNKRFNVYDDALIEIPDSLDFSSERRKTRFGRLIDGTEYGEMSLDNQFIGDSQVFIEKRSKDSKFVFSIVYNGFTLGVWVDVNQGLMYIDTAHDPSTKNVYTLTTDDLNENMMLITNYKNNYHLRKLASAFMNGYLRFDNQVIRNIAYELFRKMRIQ
Assay: EMSA, release of dsDNA from gp16/dsDNA/γ-S-ATP complex
Type: binding
Conditions: γ-S-ATP present, Cy3-dsDNA; indirect read-out of nucleotide action

Nc1ncnc2c1ncn2[C@@H]1O[C@H](COP(=O)(O)OP(=O)(O)O)[C@@H](O)[C@H]1O [ADP]
EMSA, release of dsDNA from gp16/dsDNA/γ-S-ATP complex: ADP also stimulated the release of gp16 from the gp16/dsDNA complex
